Read-outs that look alike come from different tables or passages of the source.
Key:
[1] = test system: psoriasis-like mouse model induced by imiquimod; experiment: Efficacy test in psoriasis-like mouse model induced by imiquimod (PASI score); format: in vivo, Balb/c mice
Method: Experimental animal: Balb/c mice.
• (1) negative control group (applying Vaseline, administering solvent intragastrically), • (2) model control group [applying imiquimod (IMQ)], • (3) administration group (applying IMQ, administering Compound 7, Compound 8, Compound 9, Compound 10, and Compound No. 146 intragastrically); • wherein, “Compound No. 146” refers to the compound in Example 146 of reference WO2014074661, which was prepared according to the method described therein.
(§1) Administration dosage and method: 20 mg/kg, BID, intragastric administration.
Experiment process: On Day 0, the animals were subjected to hair shaving on the test area of the back, and then they were grouped. From Day 1 to Day 7, one hour after the first administration in every morning, 40 mg of 5% imiquimod cream was applied once to the test area on the back, after that, a second administration was conducted on the same day. The skin lesion symptoms of psoriasis and efficacy were evaluated through Psoriasis Area and Severity Index (PASI) score (erythema, scale, thickening degree). The higher the score, the more severe the symptoms are.
PASI score results on day 7 are listed in the table below, wherein, • “+” represents a score of ≥6; • “++” represents a score of greater than 5 and less than 6; • “+++” represents a score of greater than 4 and less than or equal to 5; • “++++” represents a score of less than or equal to 4.
By using the same scheme as test example 1, pharmaceutical efficacy in psoriasis-like mouse model induced by imiquimod was studied.
By using the same scheme as test example 1, pharmaceutical efficacy in psoriasis-like mouse model induced by imiquimod was studied. PASI score results on Day 7 are listed in the table below, wherein, • “+” represents a score of ≥6; • “++” represents a score of greater than 5 and less than 6; • “+++” represents a score of greater than 4 and less than or equal to 5; • “++++” represents a score of less than or equal to 4.

[2] = test system: IL-17F; experiment: Rat model with increased IL-17 induced by imiquimod, intragastric administration; format: in vivo, SD rats; details: for skin lesions in rats: after treatment by intragastric administration
Method: Experimental animal: 8 to 10-week old SD rats, half male and half female.
• (1) negative control group (applying Vaseline, administering solvent intragastrically), • (2) model control group [applying imiquimod (IMQ)], • (3) administration group (applying IMQ, administering the compounds of the present invention intragastrically).
as §1
Model establishment: SD rat was subjected to application of 40 mg of imiquimod ointment on its back skin once a day to construct the rat model. […]
By using the same scheme as biological test example 8, the efficacy of the compounds of the present invention was evaluated, and the following test results were obtained: […]

[3] = test system: pSTAT5 expression in CD3+ cells; experiment: Inhibition of pSTAT5 expression in CD3+ cells of IFN-alpha stimulated human PBMC by FACS; format: cell-based; details: read-out: Inhibitory activity on p-STAT5 expression (IC50 value)
Method: Compound dilution and preparation: The test compound was prepared into a 10 mM solution using DMSO, and diluted in DMSO to obtain a solution with a gradient of different concentrations which was 500 times of the final concentration. 5 μL of the diluted compound was transferred into 120 μL of PBS solution containing 0.1% BSA. Positive and negative control groups were set up with 0.2% DMSO ultimately contained in each group.
• 1) Human PBMC cells were added into a 96-well cell culture plate, with 0.5 million cells and a volume of 67.5 μL per well. • 2) 3.5 μL of the diluted compound was added and mixed evenly. • 3) The incubation was carried out in a 37° C. incubator for 60 minutes. • 4) IFN-alpha was diluted to 600 ng/ml in DPBS containing 0.1% BSA. After the above 60-minute incubation, 5 μL of PE-anti-hCD3 antibody was added into each well, then 4 μL of the diluted IFN-alpha was also added into each well. • 5) The incubation was carried out in a 37° C. incubator for 30 minutes. • 6) All cells were transferred into a 96-deep-well plate and added with 1 mL of Lyse/fix buffer preheated at 37° C. • 7) The incubation was carried out in dark at 37° C. for 10 minutes. • 8) The plate was centrifuged at 600 g for 5 minutes with the supernatant abandoned, then washed twice with 1 mL of PBS and centrifuged. • 9) 1 mL of Perm buffer III was added into the cell precipitation. • 10) The incubation was carried out in dark at 4° C. for 30 minutes. • 11) The plate was centrifuged at 600 g for 5 minutes with the supernatant abandoned, then washed twice with 1 mL of PBS and centrifuged. • 12) APC anti-human pSTAT5 antibody was diluted 200 times in Staining buffer, then added into the cell wells with 100 μL per well, and mixed evenly. • 13) The incubation was carried out at room temperature for 40 minutes. • 14) The plate was washed twice with 1 mL of Staining buffer per well, and centrifuged at 600 g for 5 minutes. • 15) After the supernatant was abandoned, the cell precipitation was resuspended in 300 μL of Staining buffer. • 16) The sample was loaded and analyzed in a Beckman CytoFlex flow cytometer.

[4] = biological target: TYK2-JH2 (Homo sapiens, UniProt P29597); experiment: Enzymology experiment in vitro: TYK2-JH2 binding (Tb antibody/Tracer fluorescence ratio); details: for IC50: read-out: TYK2-JH2 binding inhibitory activity (IC50 value)
Chain of TYK2-JH2 (P29597 589-875 limits assumed): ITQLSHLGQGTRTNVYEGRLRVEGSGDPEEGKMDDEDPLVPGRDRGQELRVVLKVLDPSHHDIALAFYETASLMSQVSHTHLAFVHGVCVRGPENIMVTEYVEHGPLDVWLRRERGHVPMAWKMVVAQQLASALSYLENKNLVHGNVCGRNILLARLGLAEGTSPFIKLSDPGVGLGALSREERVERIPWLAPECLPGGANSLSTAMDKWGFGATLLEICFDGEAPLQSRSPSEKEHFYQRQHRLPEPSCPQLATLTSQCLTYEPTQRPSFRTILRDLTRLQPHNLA

[5] = Pharmacokinetic study in vivo; details: rat, plasma; male SD rats; 1 mg/kg IV, 10 mg/kg PO (intragastric), single administration; read-out: Absolute bioavailability(F %)
Method: Experimental animal: 8 to 10 week-old male SD rats, fasted 12 hours before administration. Intragastric administration: mixed solution (ethanol+TPGS+PEG300=5:5:90) was used as the administration solvent. Injection administration: mixed solution (PEG400+ddH20=80:20) was used as the administration solvent. Administration capacity: 5 ml/kg. Animal grouping: intravenous IV group and intragastric PO group, with 3 male SD rats in each group. Administration route and dosage: 1 mg/kg for intravenous IV group; 10 mg/kg for intragastric PO group. Administration frequency: single administration. • IV blood collection points: 5 minutes, 15 minutes, 30 minutes, 1 hour, 2 hours, 4 hours, 6 hours, 8 hours, and 24 hours after administration; • PO blood collection points: 15 minutes, 30 minutes, 1 hour, 2 hours, 4 hours, 6 hours, 8 hours, and 24 hours after administration. The whole blood of rat was centrifuged at 10000 rpm for 5 minutes to separate plasma, which was stored at 4° C. 0.1 ml of the plasma was taken, added with 0.2 ml of acetonitrile, vortexed for 1 minute, and centrifuged at 10000 rpm for 5 minutes to take the supernatant, which was sent for analysis of drug content after 0.22 μm filtration.

[6] = Test Example 6, same scheme as test example 1, day 7
[7] = Test Example 9, same scheme as test example 8
[8] = human PBMC, CD3+ cells, IFN-alpha stimulation, FACS
[9] = Test Example 1, Balb/c mice, imiquimod, 20 mg/kg BID intragastric, day 7, higher score = more severe
[10] = Test Example 8, SD rats, imiquimod, 20 mg/kg BID intragastric, day 6

## [2H]C([2H])([2H])NC(=O)c1nnc(NC(=O)C2CC2)cc1Nc1cccc(-n2cccn2)c1OC [Compound 1-5]
[1]; [6]
  PASI score: ++ (a score of greater than 5 and less than 6)

## [2H]C([2H])([2H])NC(=O)c1nnc(NC(=S)C2CC2)cc1Nc1nccc(-c2ncn(C)n2)c1OC [Compound 2-1A-1]
[1]; [6]
  PASI score: ++++ (a score of less than or equal to 4)
[2]; [7]
  Content level of IL-17F in skin: A (an IL-17F content less than 30 pg/mL)
[2]
  skin lesions in rats: significantly reduced
[3]; [8]
  IC50: < 1 nM
[4]
  IC50: < 0.1 nM

## [2H]C([2H])([2H])NC(=O)c1nnc(NC(=O)C2CC2)cc1Nc1cccc(-c2ncn(CCNC(C)=S)n2)c1OC [Compound 1-4]
[1]; [6]
  PASI score: ++ (a score of greater than 5 and less than 6)

## [2H]C([2H])([2H])NC(=O)c1nnc(NC(=O)C2CC2)cc1Nc1cccc(-c2ncn(C3(C(=O)OC)CC3)n2)c1OC [Compound 1-7]
[1]; [6]
  PASI score: ++ (a score of greater than 5 and less than 6)

## [2H]C([2H])([2H])NC(=O)c1nnc(NC(=O)C2CC2([2H])[2H])cc1Nc1nccc(-c2ncn(CC#C)n2)c1OC (centres unmarked) [Compound 10]
[1]; [9]
  PASI score: ++++ (a score of less than or equal to 4)
[3]; Homo sapiens, PBMC
  IC50: < 1 nM
[4]
  effect on the activity of TYK2-JH2 (in words): have inhibitory effects on the activity of TYK2-JH2

## [2H]C([2H])([2H])NC(=O)c1nnc(NC(=O)C2CC2)cc1Nc1nccc(-c2ncn(C([2H])([2H])C#C)n2)c1OC [Compound 8]
[1]; [9]
  PASI score: ++++ (a score of less than or equal to 4)
[1]; [6]
  PASI score: ++++ (a score of less than or equal to 4)
[3]; Homo sapiens, PBMC
  IC50: < 1 nM
[4]
  IC50: < 0.1 nM

## [2H]C([2H])([2H])NC(=O)c1nnc(NC(=O)C2CC2)nc1Nc1cccc(-c2ncn(CC#C)n2)c1OC [Compound 2-1B-2]
[1]; [6]
  PASI score: ++ (a score of greater than 5 and less than 6)
[3]; [8]
  IC50: 5 to 10 nM
[4]
  IC50: 0.5 to 1 nM

## [2H]C([2H])([2H])NC(=O)c1nnc(NC(=N)C2CC2)cc1Nc1cccc(-c2ncn(C)n2)c1OC [Compound 1-1-1]
[1]; [6]
  PASI score: + (a score of ≥6)
[2]; [7]
  Content level of IL-17F in skin: D (an IL-17F content ranging from 300 pg/mL to 400 pg/mL)

## [2H]C([2H])([2H])NC(=O)c1nnc(NC(=O)C=C)cc1Nc1cccc(-c2ncn(C)n2)c1OC [Compound 1-9]
[1]; [6]
  PASI score: + (a score of ≥6)

## [2H]C([2H])([2H])NC(=O)c1nnc(NC(=O)C2CC2)cc1Nc1cccc(-n2ccnn2)c1OC [Compound 1-6]
[1]; [6]
  PASI score: ++ (a score of greater than 5 and less than 6)

## [2H]C([2H])([2H])NC(=O)c1nnc(NC(=O)C2CC2)cc1Nc1cccc(-c2ncn(COCC[Si](C)(C)C)n2)c1OC [Compound 1-3]
[1]; [6]
  PASI score: ++ (a score of greater than 5 and less than 6)

## [2H]C([2H])([2H])NC(=O)c1nnc(NC(=O)C2CC2)cc1Nc1cccc(-c2nnn(CC#C)n2)c1OC [Compound 2-1B-1]
[1]; [6]
  PASI score: ++ (a score of greater than 5 and less than 6)
[3]; [8]
  IC50: 5 to 10 nM
[4]
  IC50: 0.1 to 0.5 nM

## [2H]C([2H])([2H])NC(=O)c1nnc(NC(=O)C2CC2)cc1Nc1nccc(-c2ncn(CC#C)n2)c1OC [Compound 7]
[1]; [9]
  PASI score: ++++ (a score of less than or equal to 4)
[1]; [6]
  PASI score: ++++ (a score of less than or equal to 4)
[2]; [10]
  Content level of IL-17F in skin: A (an IL-17F content less than 30 pg/mL)
[2]
  skin lesions in rats: significantly reduced
[3]; Homo sapiens, PBMC
  IC50: < 1 nM
[4]
  IC50: < 0.1 nM

## [2H]C([2H])([2H])NC(=O)c1nnc(NS(=O)(=O)C2CC2)cc1Nc1cccc(-c2ncn(C)n2)c1OC [Compound 1-8]
[1]; [6]
  PASI score: + (a score of ≥6)

## [2H]C([2H])([2H])NC(=O)c1nnc(NC(=O)C2([2H])CC2)cc1Nc1nccc(-c2ncn(CC#C)n2)c1OC [Compound 11]
[1]; Test Example 2, same scheme as test example 1, day 7
  PASI score: ++++ (a score of less than or equal to 4)
[1]; [6]
  PASI score: ++++ (a score of less than or equal to 4)
[5]
  bioavailability: 97.8%
[2]; [10]
  Content level of IL-17F in skin: A (an IL-17F content less than 30 pg/mL)
[2]
  skin lesions in rats: significantly reduced
[3]; Homo sapiens, PBMC
  IC50: < 1 nM
[4]
  IC50: < 0.1 nM

## [2H]C#CC([2H])([2H])n1cnc(-c2ccnc(Nc3cc(NC(=O)C4CC4)nnc3C(=O)NC([2H])([2H])[2H])c2OC)n1 [Compound 9]
[1]; [9]
  PASI score: ++++ (a score of less than or equal to 4)
[1]; [6]
  PASI score: ++++ (a score of less than or equal to 4)
[3]; Homo sapiens, PBMC
  IC50: < 1 nM
[4]
  IC50: < 0.1 nM

## [2H]C([2H])([2H])NC(=O)c1nnc(NC(=O)C2CC2)cc1Nc1cccc(-c2ccn(CC#C)n2)c1OC [Compound 2-1B-7]
[1]; [6]
  PASI score: ++ (a score of greater than 5 and less than 6)
[3]; [8]
  IC50: 5 to 10 nM
[4]
  IC50: 0.1 to 0.5 nM

Source: US20240382477A1, “NITROGEN-CONTAINING HETEROCYCLIC PYRIDINE COMPOUND” (SHANGHAI ZHEYE BIOTECHNOLOGY CO. LTD., priority 2021, published 2024)
